Laboratory results as given in patent US10947252B2, “Inhibitors of KEAP1-Nrf2 protein-protein interaction” (Janssen Pharmaceutica NV, priority 2018, dated 2021).

Key:
[1] = target: Kelch domain of human KEAP1 (321-624 aa) (Homo sapiens (Human), UniProt Q14145); experiment: KEAP1 KELCH ThermoFluor binding assay; details: KEAP Kelch […], 1,8-ANS, pH 7.0, average of results obtained, read-out: Tf Kd;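 note: Ligand-induced melting temperature shift of E. coli-expressed KEAP1 Kelch protein, Kd estimated from concentration-response curves of ΔTm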
Description: The shift in the melting point described as a ΔTm is proportional to the concentration and affinity of the ligand. The compound potency may be compared as a rank order of either ΔTm values at a single compound concentration or in terms of KD values, estimated from concentration response curves.
The protein was expressed in E. coli with 6His tag that was cleaved prior to receipt for use.
Protein (KEAP Kelch) and compound solutions were dispensed into black 384-well polypropylene PCR microplates (Abgene) and overlayed with silicone oil (1 μL, Fluka, type DC 200) to prevent evaporation.

[2] = tested on: Glo-Response ARE-luc2P HEK293 cell line; experiment: ARE luciferase reporter cell-based assay; details: average of results obtained;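 note: luciferase signal tracks Nrf2 activation of the ARE once compounds disrupt KEAP1-Nrf2 binding, read with One-Glo reagent, DMSO serving as low control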

Sequence of Kelch domain of human KEAP1 (321-624 aa) (Q14145 321-624): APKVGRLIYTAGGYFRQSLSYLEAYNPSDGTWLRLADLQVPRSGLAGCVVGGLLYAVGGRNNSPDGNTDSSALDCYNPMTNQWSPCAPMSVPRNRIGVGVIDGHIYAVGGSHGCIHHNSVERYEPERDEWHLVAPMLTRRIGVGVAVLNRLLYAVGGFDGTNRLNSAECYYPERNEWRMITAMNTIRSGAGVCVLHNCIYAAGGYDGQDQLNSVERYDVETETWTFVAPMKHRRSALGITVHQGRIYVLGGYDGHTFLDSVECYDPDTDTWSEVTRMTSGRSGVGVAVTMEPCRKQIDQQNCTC

Row | Compound | Kd [1] [nM] | EC50 ([2]; Homo sapiens, HEK293, 24 h) [nM] | EC50 ([2]; 24 hours) [nM]
1 | Cc1ccc(C(CC(=O)O)c2ccn3c(C(F)(F)F)nnc3c2C)nc1CN1CC2CCCCN2c2ncc(Cl)cc2S1(=O)=O (stereo not shown) [Example 518, 3-(6-((3-Chloro-5,5-dioxido-7,7a,8,9,10,11-hexahydro-6H-dipyrido[2,1-d:2′,3′-f][1,2,5]thiadiazepin-6-yl)methyl)-5-methylpyridin-2-yl)-3-(8-methyl-3-(trifluoromethyl)-[1,2,4]triazolo[4,3-a]pyridin-7-yl)propanoic Acid] | < 1 | 3.48 | –
2 | Cc1ccc(C(CC(=O)O)c2ccn3c(C(F)F)nnc3c2C)cc1CN1CC2(CCOCC2)Oc2ccc(F)cc2S1(=O)=O (stereo not shown) [Example 523, 3-(3-(Difluoromethyl)-8-methyl-[1,2,4]triazolo[4,3-a]pyridin-7-yl)-3-(3-((8-fluoro-1,1-dioxido-2′,3′,5′,6′-tetrahydrospiro[benzo[b][1,4,5]oxathiazepine-4,4′-pyran]-2(3H)-yl)methyl)-4-methylphenyl)propanoic Acid] | < 1 | 23.9 | –
3 | Cc1ccc(C(CC(=O)O)c2ccn3c(C(F)F)nnc3c2C)cc1CN1CC2(CC2)Oc2ncc(F)cc2S1(=O)=O (stereo not shown) [Example 526, 3-(3-(Difluoromethyl)-8-methyl-[1,2,4]triazolo[4,3-a]pyridin-7-yl)-3-(3-((8′-fluoro-1′,1′-dioxidospiro[cyclopropane-1,4′-pyrido[2,3-b][1,4,5]oxathiazepin]-2′(3′H)-yl)methyl)-4-methylphenyl)propanoic Acid] | < 1 | 60.1 | –
4 | Cc1ccc(C(CC(=O)O)c2ccn3c(C(F)F)nnc3c2C)cc1CN1CC2(CC2)Oc2ncc(Cl)cc2S1(=O)=O (stereo not shown) [Example 529, 3-(3-((8′-Chloro-1′,1′-dioxidospiro[cyclopropane-1,4′-pyrido[2,3-b][1,4,5]oxathiazepin]-2′(3′H)-yl)methyl)-4-methylphenyl)-3-(3-(difluoromethyl)-8-methyl-[1,2,4]triazolo[4,3-a]pyridin-7-yl)propanoic Acid] | < 1 | 29.1 | –
5 | Cc1ccc(C(CC(=O)O)c2ccn3c(C(F)F)nnc3c2C)cc1CN1CC2(CCOCC2)Oc2ncc(F)cc2S1(=O)=O (stereo not shown) [Example 532, 3-(3-(Difluoromethyl)-8-methyl-[1,2,4]triazolo[4,3-a]pyridin-7-yl)-3-(3-((8′-fluoro-1′,1′-dioxido-2,3,5,6-tetrahydrospiro[pyran-4,4′-pyrido[2,3-b][1,4,5]oxathiazepin]-2′(3′H)-yl)methyl)-4-methylphenyl)propanoic Acid] | < 1 | 41.7 | –

More lines, main results first:

Row | Kd [1] [nM] | Compound | EC50 ([2]; Homo sapiens, HEK293, 24 h) [nM] | EC50 ([2]; 24 hours) [nM]
6 | < 1 | Cc1cnc2c(c1)S(=O)(=O)N(Cc1cc(C(CC(=O)O)c3ccn4c(C(F)F)nnc4c3C)ccc1C)CC1(CC1)O2 (stereo not shown) [Example 535, 3-(3-(Difluoromethyl)-8-methyl-[1,2,4]triazolo[4,3-a]pyridin-7-yl)-3-(4-methyl-3-((8′-methyl-1′,1′-dioxidospiro[cyclopropane-1,4′-pyrido[2,3-b][1,4,5]oxathiazepin]-2′(3′H)-yl)methyl)phenyl)propanoic Acid] | 146 | –
7 | 453 | Cc1ccc(C(CC(=O)O)c2ccn3c(C(F)F)nnc3c2C)cc1CN1CC2(CC2)Oc2ncc(C(N)=O)cc2S1(=O)=O (stereo not shown) [Example 551, 3-(3-((8′-Carbamoyl-1′,1′-dioxidospiro[cyclopropane-1,4′-pyrido[2,3-b][1,4,5]oxathiazepin]-2′(3′H)-yl)methyl)-4-methylphenyl)-3-(3-(difluoromethyl)-8-methyl-[1,2,4]triazolo[4,3-a]pyridin-7-yl)propanoic Acid] | > 20000 | –
8 | > 10000 | (*S)-3-(3-((7′-(3-((2-(2-aminoethoxy)ethyl)amino)-3-oxopropyl)-1′,1′-dioxido-2,3,5,6-tetrahydrospiro[pyran-4,4′-pyrido[2,3-b][1,4,5]oxathiazepin]-2′(3′H)-yl)methyl)-4-methylphenyl)-2,2-dimethyl-3-(8-methyl-3-(trifluoromethyl)-[1,2,4]triazolo[4,3-a]pyridin-7-yl)propanoic Acid [Example 345] | – | > 20
